What was measured:
Japanese medaka = conditions: long-term exposure, MMT; ref Flynn et al. (2017); cited from earlier work
[1] = test system: Japanese medaka (Oryzias latipes); assay: Fish short-term reproduction assay (FSTRA, OECD TG229), 21-day flow-through exposure; conditions: for Fertility rate (%) / Mortality (%) Female / Mortality (%) Male / Number of fertilized eggs / Number of total eggs / SSC Female / SSC Male / VTG (ng/mg of liver) Female / VTG (ng/mg of liver) Male: 21 days; for GSI Female / GSI Male / HSI Female / HSI Male / Length Female / Length Male / Weight Female / Weight Male: at completion of exposure
Summary of the method: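 Run to OECD TG229: mature NIES-R medaka pairs (3♂/3♀ per vessel, 4 vessels per treatment plus dilution water control) were dosed by continuous flow-through for 21 days. Test concentrations were spaced 2- to 5-fold. Daily spawned eggs were counted under the microscope for fertilized versus unfertilized.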

Q: For C[C@]12CC[C@@H]3c4ccc(O)cc4CC[C@H]3[C@@H]1CC[C@@H]2O [E2, 17β‐Estradiol], which “LOEC on male VTG induction” value (Japanese medaka) is on record?
A: The value was 28 ng/L.

Q: And the “LOEC on VTG induction in male (in molarity)” value ([1]; hepatic VTG, 21-day exposure)?
A: Its value is 81 pM.

Q: What about the “LOEC for VTG induction in males” value ([1]; hepatic VTG, 21-day exposure, measured conc.) of the same compound?
A: Its value is 22.1 ng/L.

Q: What about the “LOEC on male VTG induction: times smaller than the LOEC for CMP” value ([1]; in vivo) of the same compound?
A: Its value is “more than 8,000 times”.

Q: What about the “effect on male GSI, in words” value ([1]; in vivo) of the same compound?
A: Its value is “significant decreasing”.

Q: And the “Fertility rate (%)” value ([1]; measured conc. 22.1 ng/L)?
A: Its value is 90%.

Q: And the “Mortality (%) Female” value ([1]; measured conc. 22.1 ng/L)?
A: The value was 0%.

Q: What about the “Mortality (%) Male” value ([1]; measured conc. 22.1 ng/L) of the same compound?
A: Its value is 0%.

Q: And the “Number of fertilized eggs” value ([1]; measured conc. 22.1 ng/L)?
A: The value was 18.

Q: And the “Number of total eggs” value ([1]; measured conc. 22.1 ng/L)?
A: Its value is 20 ± 2.9 /female/day.

Q: And the “SSC Female” value ([1]; measured conc. 22.1 ng/L)?
A: The value was 0 ± 0.

Q: And the “SSC Male” value ([1]; measured conc. 22.1 ng/L)?
A: The value was 109 ± 10.

Q: And the “VTG (ng/mg of liver) Female” value ([1]; measured conc. 22.1 ng/L)?
A: Its value is 3,420 ± 991 ng/mg of liver.

Q: And the “VTG (ng/mg of liver) Male” value ([1]; measured conc. 22.1 ng/L)?
A: Its value is 424 ± 379 ng/mg of liver.

Q: And the “GSI Female” value ([1]; measured conc. 22.1 ng/L)?
A: Its value is 10.3%.

Q: What about the “GSI Male” value ([1]; measured conc. 22.1 ng/L) of the same compound?
A: The value was 0.82%.

Q: And the “HSI Female” value ([1]; measured conc. 22.1 ng/L)?
A: Its value is 4.4%.

Q: What about the “HSI Male” value ([1]; measured conc. 22.1 ng/L) of the same compound?
A: The value was 2.0%.

Q: What about the “Length Female” value ([1]; measured conc. 22.1 ng/L) of the same compound?
A: The value was 36.8 mm.

Q: And the “Length Male” value ([1]; measured conc. 22.1 ng/L)?
A: Its value is 36.4 mm.

Q: What about the “Weight Female” value ([1]; measured conc. 22.1 ng/L) of the same compound?
A: The value was 573 mg.

Q: And the “Weight Male” value ([1]; measured conc. 22.1 ng/L)?
A: The value was 507 mg.

Q: What about the “Fertility rate (%)” value ([1]; measured conc. 115 ng/L) of the same compound?
A: The value was 95%.

Q: What about the “Mortality (%) Female” value ([1]; measured conc. 115 ng/L) of the same compound?
A: Its value is 8%.

Q: And the “Mortality (%) Male” value ([1]; measured conc. 115 ng/L)?
A: Its value is 8%.

Q: What about the “Number of fertilized eggs” value ([1]; measured conc. 115 ng/L) of the same compound?
A: Its value is 21.

Q: What about the “Number of total eggs” value ([1]; measured conc. 115 ng/L) of the same compound?
A: Its value is 22 ± 1.5 /female/day.

Q: And the “SSC Female” value ([1]; measured conc. 115 ng/L)?
A: Its value is 0 ± 0.

Q: And the “SSC Male” value ([1]; measured conc. 115 ng/L)?
A: The value was 112 ± 10.

Q: And the “VTG (ng/mg of liver) Female” value ([1]; measured conc. 115 ng/L)?
A: Its value is 5,500 ± 1,370 ng/mg of liver.

Q: What about the “VTG (ng/mg of liver) Male” value ([1]; measured conc. 115 ng/L) of the same compound?
A: The value was 13,400 ± 1900 ng/mg of liver.

Q: What about the “GSI Female” value ([1]; measured conc. 115 ng/L) of the same compound?
A: Its value is 11.4%.

Q: What about the “GSI Male” value ([1]; measured conc. 115 ng/L) of the same compound?
A: Its value is 0.67%.

Q: What about the “HSI Female” value ([1]; measured conc. 115 ng/L) of the same compound?
A: The value was 4.3%.

Q: And the “HSI Male” value ([1]; measured conc. 115 ng/L)?
A: Its value is 2.5%.

Q: And the “Length Female” value ([1]; measured conc. 115 ng/L)?
A: The value was 35.6 mm.

Q: What about the “Length Male” value ([1]; measured conc. 115 ng/L) of the same compound?
A: The value was 35.8 mm.

Q: What about the “Weight Female” value ([1]; measured conc. 115 ng/L) of the same compound?
A: Its value is 517 mg.

Q: And the “Weight Male” value ([1]; measured conc. 115 ng/L)?
A: Its value is 512 mg.

Q: What about the “Fertility rate (%)” value ([1]; measured conc. 553 ng/L) of the same compound?
A: Its value is 85%.

Q: And the “Mortality (%) Female” value ([1]; measured conc. 553 ng/L)?
A: The value was 17%.

Q: And the “Mortality (%) Male” value ([1]; measured conc. 553 ng/L)?
A: Its value is 8%.

Q: What about the “Number of fertilized eggs” value ([1]; measured conc. 553 ng/L) of the same compound?
A: The value was 9.4.

Q: What about the “Number of total eggs” value ([1]; measured conc. 553 ng/L) of the same compound?
A: Its value is 13 ± 1.9 /female/day.

Q: What about the “SSC Female” value ([1]; measured conc. 553 ng/L) of the same compound?
A: Its value is 0 ± 0.

Q: And the “SSC Male” value ([1]; measured conc. 553 ng/L)?
A: The value was 97 ± 14.

Q: And the “VTG (ng/mg of liver) Female” value ([1]; measured conc. 553 ng/L)?
A: Its value is 18,900 ± 5,910 ng/mg of liver.

Q: What about the “VTG (ng/mg of liver) Male” value ([1]; measured conc. 553 ng/L) of the same compound?
A: The value was 19,900 ± 3,570 ng/mg of liver.

Q: And the “GSI Female” value ([1]; measured conc. 553 ng/L)?
A: The value was 11.2%.

Q: And the “GSI Male” value ([1]; measured conc. 553 ng/L)?
A: The value was 0.31%.

Q: And the “HSI Female” value ([1]; measured conc. 553 ng/L)?
A: Its value is 4.4%.

Q: And the “HSI Male” value ([1]; measured conc. 553 ng/L)?
A: The value was 3.2%.

Q: What about the “Length Female” value ([1]; measured conc. 553 ng/L) of the same compound?
A: Its value is 35.0 mm.

Q: And the “Length Male” value ([1]; measured conc. 553 ng/L)?
A: Its value is 35.0 mm.

Q: And the “Weight Female” value ([1]; measured conc. 553 ng/L)?
A: Its value is 512 mg.

Q: What about the “Weight Male” value ([1]; measured conc. 553 ng/L) of the same compound?
A: The value was 488 mg.

Q: What about the “effect on fecundity (number of total eggs), in words” value ([1]; within the test concentrations, 21-day exposure) of the same compound?
A: Its value is “significant decrease”.

Reference: publication PMC8359193, “Summary of reference chemicals evaluated by the fish short‐term reproduction assay, OECD TG229, using Japanese Medaka, Oryzias latipes” (Journal of Applied Toxicology, 2021)
